# According to patent publication US20220251084A1, “PROGRANULIN MODULATORS AND METHODS OF USING THE SAME” (ARKUDA THERAPEUTICS, priority 2019, published 2022):
# Tested on: progranulin (PGRN) secretion, BV-2 cells
# Assay: PGRN assay: progranulin induction cellular assay (ELISA of secreted mouse PGRN)
# Format: cell-based
# Settings: not given
# Experimental: Cellular Assays: To measure the efficacy of compounds, a progranulin induction cellular assay in mouse primary microglia (pMG), primary cortical neurons, and BV-2 cell lines is used. BV-2 cells are split the day before plating into a 96 well plate format at approximately 80%. Cells should be plated the day before and allowed for 1 hour attachment period and for 16 hour incubation. […] Standard ELISA kits to measure PGRN are available from vendors such as Adipogen, R&D, and Biovendor.
row,SMILES,EC50 [nM]
1,"CN1CCC([C@H]2c3ccccc3CCN2C(=O)O[C@@H]2CN3CCC2CC3)CC1=O (stereo partly drawn) [Compound 2024, (S)-quinuclidin-3-yl 1-(1-methyl-2-oxopiperidin-4-yl)-3,4-dihydroisoquinoline-2(1H)-carboxylate]",> 10000
2,N#Cc1ccc2c(c1)CCN(C(=O)O[C@@H]1CN3CCC1CC3)[C@H]2c1ccc(F)cc1 [Compound 2033],> 10000
3,N#Cc1ccc2c(c1)CCN(C(=O)O[C@@H]1CN3CCC1CC3)[C@@H]2c1ccc(F)cc1 [Compound 2034],6070
4,N#Cc1ccc2c(c1)[C@H](c1ccc(F)cc1)N(C(=O)O[C@@H]1CN3CCC1CC3)CC2 [Compound 2035],> 10000
5,N#Cc1ccc2c(c1)[C@@H](c1ccc(F)cc1)N(C(=O)O[C@@H]1CN3CCC1CC3)CC2 [Compound 2036],> 10000

# Same assay, conditions: Mus musculus, BV-2
row,SMILES,EC50 [nM]
1,O=C(OCC12CCN(CC1)CC2)N1CCc2ccccc2[C@@H]1c1ccc(F)cc1 [Compound 2001],170
2,O=C(O[C@@H]1CN2CCC1CC2)N1CCc2ccccc2C1c1ccc2[nH]c(=O)sc2c1 (stereo partly drawn) [Compound 2011],> 10000
3,O=C(O[C@@H]1CN2CCC1CC2)N1CCc2ccccc2[C@H]1c1ccc2[nH]c(=O)sc2c1 [Compound 2012],> 10000
4,CS(=O)(=O)c1ccc2c(c1)CCN(C(=O)O[C@@H]1CN3CCC1CC3)[C@H]2c1ccc(F)cc1 [Compound 2025],> 10000
5,CS(=O)(=O)c1ccc2c(c1)CCN(C(=O)O[C@@H]1CN3CCC1CC3)[C@@H]2c1ccc(F)cc1 [Compound 2026],> 10000
6,COC(=O)c1ccc2c(c1)[C@H](c1ccc(F)cc1)N(C(=O)O[C@@H]1CN3CCC1CC3)CC2 [Compound 2029],> 10000
7,CS(=O)(=O)c1ccc2c(c1)[C@H](c1ccc(F)cc1)N(C(=O)O[C@@H]1CN3CCC1CC3)CC2 [Compound 2031],5750
8,CS(=O)(=O)c1ccc2c(c1)[C@@H](c1ccc(F)cc1)N(C(=O)O[C@@H]1CN3CCC1CC3)CC2 [Compound 2032],> 10000

# Same assay, conditions: Mus musculus, BV-2, PGRN assay, Table C; secreted mouse PGRN in cell culture medium, ELISA
row,SMILES,EC50 [nM]
1,"C#CCOc1ccc2c(c1)C(c1ccc(F)cc1)N(C(=O)OCC13CCN(CC1)CC3)CC2 (stereo in doubt) [Compound 2053, (S)-quinuclidin-4-ylmethyl 1-(4-fluorophenyl)-7-(prop-2-ynyloxy)-3,4-dihydroisoquinoline-2(1H)-carboxylate]",5740
2,"O=C([C@H](O)[C@@H]1CN2CCC1CC2)N1CCc2ccccc2[C@@H]1c1ccc(F)cc1 (stereo in doubt) [Compound 2075, 1-((S)-1-(4-fluorophenyl)-3,4-dihydroisoquinolin-2(1H)-yl)-2-hydroxy-2-(quinuclidin-3-yl)ethanone]",895
3,"CN1CC2CCC(C1)C2OC(=O)N1CCc2ccccc2[C@@H]1c1ccc(F)cc1 (stereo in doubt) [Compound 2094, (1S)-3-methyl-3-aza-bicyclo[3.2.1]octan-8-yl 1-(4-fluorophenyl)-3,4-dihydroisoquinoline-2(1H)-carboxylate]",7220
4,O=C(OC1CC2CCN(C2)C1)N1CCc2ccccc2[C@@H]1c1ccc(F)cc1 (stereo partly drawn) [Compound 2002],748
5,CN1CCO[C@H](CC(=O)N2CCc3ccccc3[C@@H]2c2ccc(F)cc2)C1 [Compound 2003],1130
6,CN1CCO[C@H](COC(=O)N2CCc3ccccc3[C@@H]2c2ccc(F)cc2)C1 [Compound 2004],1050
7,CN1CCO[C@@H](COC(=O)N2CCc3ccccc3[C@@H]2c2ccc(F)cc2)C1 [Compound 2005],587
8,CN1C2CCC1CC(OC(=O)N1CCc3ccccc3[C@@H]1c1ccc(F)cc1)C2 (stereo partly drawn) [Compound 2007],1190
9,CN1C[C@H]2CC[C@@H](C1)[C@H]2OC(=O)N1CCc2ccccc2[C@@H]1c1ccc(F)cc1 [Compound 2008],559
10,O=C(CO[C@@H]1CN2CCC1CC2)N1CCc2ccccc2[C@@H]1c1ccc(F)cc1 [Compound 2009],811
11,O=S(=O)(N[C@@H]1CN2CCC1CC2)N1CCc2ccccc2[C@@H]1c1ccc(F)cc1 [Compound 2010],> 10000
12,CN(CC12CCN(CC1)CC2)C(=O)N1CCc2ccccc2[C@@H]1c1ccc(F)cc1 [Compound 2013],> 10000
13,N#Cc1ccc2c(c1)CCN(C(=O)N[C@@H]1CN3CCC1CC3)[C@H]2c1ccc(F)cc1 [Compound 2014],2320
14,N#Cc1ccc2c(c1)CCN(C(=O)N[C@@H]1CN3CCC1CC3)[C@@H]2c1ccc(F)cc1 [Compound 2015],1500
15,CN1C2CCC1[C@@H](OC(=O)N1CCc3ccccc3[C@@H]1c1ccc(F)cc1)CC2 (stereo partly drawn) [Compound 2016],581
16,CN1C2CCC1[C@H](OC(=O)N1CCc3ccccc3[C@H]1c1ccc(F)cc1)CC2 (stereo partly drawn) [Compound 2017],722
17,CN1CCC2(CC1)CC(OC(=O)N1CCc3ccccc3[C@@H]1c1ccc(F)cc1)C2 [Compound 2018],1890
18,CN1CC2(CC(OC(=O)N3CCc4ccccc4[C@@H]3c3ccc(F)cc3)C2)C1 [Compound 2019],965
19,CN1CCC(OC(=O)N2CCc3ccccc3[C@@H]2c2ccc(F)cc2)CC1 [Compound 2020],230
20,CN1CC2(CC[C@@H]2OC(=O)N2CCc3ccccc3[C@@H]2c2ccc(F)cc2)C1 [Compound 2021],735
21,CN1CC2(CC[C@H]2OC(=O)N2CCc3ccccc3[C@@H]2c2ccc(F)cc2)C1 [Compound 2022],960
22,CN1C[C@@H]2[C@@H](COC(=O)N3CCc4ccccc4[C@@H]3c3ccc(F)cc3)[C@@H]2C1 [Compound 2023],1180
23,CO[C@@H](CC12CCN(CC1)CC2)C(=O)N1CCc2ccccc2[C@@H]1c1ccc(F)cc1 [Compound 2027],> 10000
24,CO[C@H](CC12CCN(CC1)CC2)C(=O)N1CCc2ccccc2[C@@H]1c1ccc(F)cc1 [Compound 2028],> 10000
25,O=C(CCC12CCN(CC1)CC2)N1CCc2ccccc2[C@@H]1c1ccc(F)cc1 [Compound 2037],> 8090
26,"N#Cc1ccc2c(c1)[C@H](c1ccc(F)cc1)N(C(=O)N[C@@H]1CN3CCC1CC3)CC2 [Compound 2038, 7-cyano-1-(4-fluorophenyl)-N—((S)-quinuclidin-3-yl)-3,4-dihydroisoquinoline-2(1H)-carboxamide]",> 10000
27,"N#Cc1ccc2c(c1)[C@@H](c1ccc(F)cc1)N(C(=O)N[C@@H]1CN3CCC1CC3)CC2 [Compound 2039, 7-cyano-1-(4-fluorophenyl)-N—((S)-quinuclidin-3-yl)-3,4-dihydroisoquinoline-2(1H)-carboxamide]",> 10000
28,"CS(=O)(=O)c1ccc2c(c1)CCN(C(=O)N[C@@H]1CN3CCC1CC3)[C@H]2c1ccc(F)cc1 [Compound 2040, 1-(4-fluorophenyl)-6-(methylsulfonyl)-N—((S)-quinuclidin-3-yl)-3,4-dihydroisoquinoline-2(1H)-carboxamide]",> 10000
29,"CS(=O)(=O)c1ccc2c(c1)CCN(C(=O)N[C@@H]1CN3CCC1CC3)[C@@H]2c1ccc(F)cc1 [Compound 2041, 1-(4-fluorophenyl)-6-(methylsulfonyl)-N—((S)-quinuclidin-3-yl)-3,4-dihydroisoquinoline-2(1H)-carboxamide]",> 10000

# Same assay, conditions: Mus musculus, BV-2, PGRN assay, Table D; secreted mouse PGRN in cell culture medium, ELISA
row,EC50 [nM],SMILES
1,5870,"CN1CC[C@H](O)[C@@H](OC(=O)N2CCc3ccccc3[C@@H]2c2ccc(F)cc2)[C@@H]1CO (single isomer, unassigned) [Compound 2305]"
2,9740,"CN1C[C@@H](NC(=O)N2CCc3ccccc3[C@@H]2c2ccc(F)cc2)C2(CC2)C1 (single isomer, unassigned) [Compound 2317]"
3,3350,"CN1C[C@@H](NC(=O)N2CCc3ccccc3[C@H]2c2ccc(F)cc2)C2(CC2)C1 (single isomer, unassigned) [Compound 2318]"
4,8870,"O=C(N1CC[C@@]2(CNCCO2)C1)N1CCc2ccccc2[C@H]1c1ccc(F)cc1 (single isomer, unassigned) [Compound 2323]"
5,742,"O=C(N1CC[C@@]2(CNCCO2)C1)N1CCc2ccccc2[C@@H]1c1ccc(F)cc1 (single isomer, unassigned) [Compound 2324]"
6,4700,"O=C(N1CC[C@]2(CNCCO2)C1)N1CCc2ccccc2[C@H]1c1ccc(F)cc1 (single isomer, unassigned) [Compound 2325]"
7,189,"O=C(N1CC[C@]2(CNCCO2)C1)N1CCc2ccccc2[C@@H]1c1ccc(F)cc1 (single isomer, unassigned) [Compound 2326]"
8,360,"O=C(N[C@H]1CNCC1(F)F)N1CCc2ccccc2[C@@H]1c1ccc(F)cc1 (stereo in doubt) [Compound 2243, (1 S)—N-(4,4-difluoropyrrolidin-3-yl)-1-(4-fluorophenyl)-3,4-dihydroisoquinoline-2(1H)-carboxamide]"
9,3260,"O=C(N[C@@H]1CNCC1(F)F)N1CCc2ccccc2[C@@H]1c1ccc(F)cc1 (stereo in doubt) [Compound 2244, (1 S)—N-(4,4-difluoropyrrolidin-3-yl)-1-(4-fluorophenyl)-3,4-dihydroisoquinoline-2(1H)-carboxamide]"
10,600,"O=C(O[C@H]1CNCC12CC2)N1CCc2ccccc2[C@@H]1c1ccc(F)cc1 (stereo in doubt) [Compound 2309, 5-azaspiro[2.4]heptan-7-yl-(1 S)-1-(4-fluorophenyl)-3,4-dihydroisoquinoline-2(1H)-carboxylate]"
11,501,"O=C(O[C@@H]1CNCC12CC2)N1CCc2ccccc2[C@@H]1c1ccc(F)cc1 (stereo in doubt) [Compound 2310, 5-azaspiro[2.4]heptan-7-yl-(1 S)-1-(4-fluorophenyl)-3,4-dihydroisoquinoline-2(1H)-carboxylate]"
12,1320,"CN(C)C1CCN(C(=O)N2CCc3ccccc3[C@@H]2c2ccc(F)cc2)C1 (stereo in doubt) [Compound 2311, ((R)-3-(dimethylamino)pyrrolidin-1-yl)((S)-1-(4-fluorophenyl)-3,4-dihydroisoquinolin-2(1H)-yl)methanone]"
